Broadly, the Ki is the equilibrium dissociation constant of an inhibitor or competing ligand from its target. Read a high Ki as weaker binding.

In the test the target is Fibroblast growth factor receptor 1 (Homo sapiens, UniProt P11362).
Fibroblast growth factor receptor 1, sequence (P11362 whole entry): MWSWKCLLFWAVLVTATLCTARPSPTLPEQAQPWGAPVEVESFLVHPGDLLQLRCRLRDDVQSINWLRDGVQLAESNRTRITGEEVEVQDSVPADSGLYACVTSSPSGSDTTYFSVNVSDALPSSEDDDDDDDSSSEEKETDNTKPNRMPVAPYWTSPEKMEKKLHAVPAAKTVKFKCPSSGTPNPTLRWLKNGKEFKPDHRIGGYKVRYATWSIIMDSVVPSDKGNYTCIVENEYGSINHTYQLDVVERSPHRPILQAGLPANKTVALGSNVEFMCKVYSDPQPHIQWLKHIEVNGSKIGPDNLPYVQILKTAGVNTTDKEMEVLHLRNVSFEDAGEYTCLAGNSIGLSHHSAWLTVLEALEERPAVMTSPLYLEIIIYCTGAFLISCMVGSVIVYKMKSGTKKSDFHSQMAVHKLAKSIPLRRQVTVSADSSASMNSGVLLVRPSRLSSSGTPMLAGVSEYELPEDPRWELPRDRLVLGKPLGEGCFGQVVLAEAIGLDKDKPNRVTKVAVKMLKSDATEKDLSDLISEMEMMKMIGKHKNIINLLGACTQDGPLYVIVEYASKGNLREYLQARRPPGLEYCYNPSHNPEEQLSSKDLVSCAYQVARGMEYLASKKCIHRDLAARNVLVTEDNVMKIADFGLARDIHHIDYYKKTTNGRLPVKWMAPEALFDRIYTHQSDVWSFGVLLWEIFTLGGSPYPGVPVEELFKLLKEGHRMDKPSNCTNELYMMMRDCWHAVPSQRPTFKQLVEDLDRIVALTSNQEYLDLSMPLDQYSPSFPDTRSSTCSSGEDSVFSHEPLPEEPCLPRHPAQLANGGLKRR

Take `COc1cc(OC)cc(-c2cc3cnc(N)nc3nc2NC(=O)NC(C)(C)C)c1` [6-arylpyrido[2,3-d]pyrimidine deriv. 25]: the inhibition constant Ki is 45.2 nM.

(Values after BindingDB's records for PubMed 9655904 (Parke-Davis Pharmaceutical Research, 1998).)
